Measurements from patent US7332479B2, “Extracellular NAD+ and cADPR as potent anti-inflammatory agents” (University of Pittsburgh - of the Commonwealth System of …, priority 2003, dated 2008).

Experiments:
[1] = test system: occludin and ZO-1 in Caco-2 cells; experiment: ZO-1 and occludin in NP-40-insoluble fraction, immunoprecipitation and Western blot, Caco-2 cells exposed to cytomix; assay type: cell-based, human
[2] = test system: Caco-2 human enterocyte-like cells; experiment: Paracellular permeability of Caco-2 monolayers, apical-to-basolateral clearance of FD4, cytomix; assay type: cell-based
Protocol: Cell Culture. Caco-2 human enterocyte-like cells were routinely maintained at 37° C. in DMEM with 10% FBS, as described by Han et al. ^9 All cells were fed by changing the cell culture medium twice per week. For experiments, cells were grown on Transwell inserts (0.4 μm pore size; Corning Costar Corp., Cambridge, Mass.) and used 14-17 days post-confluence. […] Caco-2 monolayers growing on permeable supports were left untreated or exposed to cytomix for 24 or 48 h in the absence or presence of graded concentrations of NAD^+ or adenosine. Paracellular permeability was determined by measuring the apical-to-basolateral flux of FD4. Epithelial permeability was unaffected when monolayers were incubated with NAD^+ alone. Exposing Caco-2 cells to cytomix increased the clearance of FD4 across the monolayers (FIG. 1A). Addition of NAD^+ ameliorated cytomix-induced epithelial hyperpermeability in a concentration-dependent manner. […] NAD^+ is structurally related to a nucleoside, adenosine, that is known to exert anti-inflammatory effects by binding to certain purinergic receptors;^24 accordingly, the possibility that activation of a receptor for adenosine was responsible for the amelioration of cytokine-induced hyperpermeability by NAD^+ was considered. To investigate this idea, Caco-2 monolayers were exposed to cytomix in the absence or presence of 10 μmol/L adenosine (FIG. 1A).

mouse ileal mucosa = experiment: Ileal mucosal permeability to FD4 (ex vivo everted gut sac) in LPS-injected mice; conditions: LPS 17 mg/kg IP, two 132 mg/kg doses (IV then IP 12 h later), ileum at 18 h
Protocol: Animals. This research complied with regulations regarding animal care as published by the National Institutes of Health and was approved by the Institutional Animal Use and Care Committee of the University of Pittsburgh. Male 7-8 week old C57Bl/6J mice weighing 20-25 g were from Jackson Laboratories (Bar Harbor, Me.). To induce a systemic inflammatory response, mice were injected intraperitoneally (IP) with Escherichia coli (strain O111:B4) LPS (17 mg/kg) dissolved in 1.0 ml of PBS. Control animals were injected with a similar volume of PBS. Some mice were treated with an intravenous (IV) injection (100 μL) of either PBS or 132 mg/kg NAD^+ in PBS given 5 min before LPS or PBS injection, and this injection was repeated IP 12 h later. Groups of mice were anesthetized with 60-90 mg/kg sodium pentobarbital 18 h after the first injection with PBS or LPS. Segments of ileum were harvested to assess mucosal permeability to FD4 using an ex vivo everted gut sac method as previously described.^20
In the setting of systemic inflammation, circulating blood monocytes often encounter lipopolysaccharide (LPS), a potent inflammatory molecule derived from the outer surface of Gram-negative bacteria. […]

[3] = test system: NO. production by Caco-2 cells; experiment: NO. production (NO2- and NO3- in culture supernatants) by Caco-2 cells exposed to cytomix; assay type: cell-based, human
Protocol: (§1) Measurement of NO. production and iNOS gene expression. NO. production^21 was measured and RT-PCR ^22 for iNOS mRNA and 18S RNA were performed as described. The gels were captured using an imaging workstation (NucleoVision), and quantified with GelExpert™ 3.5. Relative expression of iNOS is reported after normalizing for 18S loading in FIG. 4B.
(§2) Accordingly, it was determined whether NAD^+ decreased the production of NO. (as assessed by measuring NO2^− and NO3^− in culture supernatants) by Caco-2 cells exposed to cytomix (similar study using RAW monocyte-like cells is not shown). […] Again, there was a biphasic response to NAD^+ treatment; provided maximal inhibition and higher doses inhibited less well. Thus, another inflammatory response, namely the induction of iNOS gene expression and the concomitant production of NO., is blocked by extracellular NAD^+ in both myeloid and epithelial cells.

Caco-2 cells = experiment: Immunofluorescence microscopy of ZO-1 and occludin localization in Caco-2 cells exposed to cytomix; assay type: cell-based, human; conditions: cytomix 48 h, 10 μmol/L added at 0 and 24 h
Protocol: Immunofluorescence. All procedures were performed at 0-4° C. as described.^9 Caco-2 cells growing on 24 well clear Transwell inserts were fixed and stained with a mouse anti-ZO-1 monoclonal antibody (mAb; BD Translabs, Franklin Lakes, N.J.) and rabbit an anti-occludin polyclonal antibody diluted 1:100. The secondary antibodies were 5 μg/mL FITC-conjugated affinity-purified donkey anti-mouse IgG and 15 μg/mL TRITC-conjugated affinity-purified goat anti-rabbit IgG (Jackson ImmunoResearch Laboratories).
Immunofluorescence microscopy was used to assess the structure of TJs in Caco-2 cells grown on Transwells. The cells were either left untreated (FIG. 3; Panel CON) or exposed to cytomix for 48 h in the absence (Panel C48) or presence (Panel N10) of extracellular NAD^+ (10 μmol/L added at 0 and 24 h). The cells were permeabilized, fixed, and stained using FITC- and TRITC-conjugated antibodies directed against ZO-1 and occludin, respectively. In control confluent Caco-2 monolayers, these proteins both were predominantly localized to regions near cell-cell boundaries. Staining was even and continuous. Following treatment with cytomix, dispersed lesions appeared throughout the monolayer, in which immunostaining for ZO-1 at cell boundaries became faint, diffuse, and discontinuous. Exposure to cytomix also was associated with “ruffling” of ZO-1 and occludin immunostaining. […]

[4] = test system: inducible nitric oxide synthase (iNOS) mRNA; experiment: iNOS mRNA expression by RT-PCR in Caco-2 cells exposed to cytomix; assay type: cell-based, human; conditions: biphasic response
Protocol: as §1, §2

[5] = test system: mice challenged with a lethal dose of Escherichia coli O111:B4 LPS; experiment: LPS-induced mortality in mice; assay type: in vivo; conditions: LPS 17 mg/kg; intravenous and intraperitoneal, 1 mg/kg pre-treatment then 1 mg/kg every 6 h for five more doses
NF-κB [6] = experiment: Nuclear NF-κB levels by electrophoretic mobility shift assay, LPS-stimulated RAW 264.7 cells; assay type: cell-based, mouse; conditions: 10 ng/ml LPS, 15 min
Protocol: Additional studies were performed to show the potent anti-inflammatory capacity of extracellular NAD^+. RAW 264.7 cells in tissue culture dishes were stimulated with LPS prepared from Escherichia coli strain 011:B4, and the activation of NF-κB was measured. Some cells were exposed to 10 ng/ml LPS in the presence of 1-100 μM NAD. Nuclear proteins were extracted from the cells 15 min after exposure to the compounds, and NF-κB levels were determined using the electrophoretic mobility shift assay.
Thus, very low doses of extracellular NAD^+ can effectively block the activation of NF-κB, an important transcription factor mobilized during an inflammatory response.

TNF-α = experiment: LPS-induced TNF-α release from RAW cells, ELISA; assay type: cell-based, mouse; conditions: 1 μM
Protocol: Whether NAD^+ could prevent the production of tumor necrosis factor α (TNF-α), a potent proinflammatory cytokine produced by activated monocytes and macrophages, was tested. Supernatants were collected from RAW cells treated with LPS in the absence or presence of NAD^+. TNF-α levels were quantitated by ELISA.

NF-κB [7] = experiment: NF-κB DNA binding by electrophoretic mobility shift assay, Caco-2 cells exposed to cytomix; assay type: cell-based, human
Protocol: Electrophoretic mobility shift assay (EMSA). Nuclear extracts were prepared and analyzed as described.^23 However, 38.3 μL of 10% NP-40 was used to lyse the cells, the nuclei were isolated by centrifugation at 310 g for 3 min, and the nuclear pellets were resuspended in 80 μL of Buffer II.
iNOS induction is dependent, in part, on activation of the transcription factor NF-κB, a transcription factor that is required for a variety of monocyte inflammatory responses, e.g., to LPS. Therefore, we tested the ability of NAD^+ to inhibit DNA binding by NF-κB in Caco-2 cells exposed to cytomix. […] NAD^+ alone had no effect on the nuclear levels of NF-κB.

**Q.** How did the expression of occludin ([1]; cytomix, co-incubation with 10 or 100 μmol/L) turn out when `Nc1ncnc2c1ncn2[C@@H]1O[C@H](COP(=O)(O)OP(=O)(O)OC[C@H]2OC(O)[C@H](O)[C@@H]2O)[C@@H](O)[C@H]1O` (some centres unmarked) [ADP-ribose] was run?
**A.** Its expression of occludin is “failed to preserve occludin expression”.

**Q.** With `Nc1ncnc2c1ncn2[C@@H]1O[C@H](CO)[C@@H](O)[C@H]1O` [Adenosine, adenosine, reference compound] as the compound, how does the “decrease in NP-40-insoluble occludin or ZO-1” value ([1]; cytomix 48 h with 10 μM) read?
**A.** The value was “failed to prevent”.

**Q.** What about the “induction of hyperpermeability by cytomix” value ([2]; 10 μmol/L) of the same compound?
**A.** The value was “no effect”.

**Q.** Which results are given for `NC(=O)c1ccc[n+]([C@@H]2O[C@H](COP(=O)([O-])OP(=O)(O)OC[C@H]3O[C@@H](n4cnc5c(N)ncnc54)[C@H](O)[C@@H]3O)[C@@H](O)[C@H]2O)c1` [NAD^+, nicotinamide adenine dinucleotide]?
**A.** increase in mucosal permeability to FD4 induced by LPS (mouse ileal mucosa): significantly ameliorated; concentration giving maximal inhibition of NO. production ([3]; cytomix): 100 µmol/L; inhibition of NO. production ([3]; cytomix, 1000 μmol/L compared with 100 μmol/L): inhibition was decreased; cytomix-increased production of NO. ([3]; graded concentrations): inhibited in a concentration-dependent manner; staining of ZO-1 and occludin at cell-cell boundaries (Caco-2 cells): continuous staining; occludin and ZO-1 in NP-40-insoluble complexes ([1]; cytomix 48 h with 10 or 100 μmol/L): normal levels of these proteins were present; cytomix-increased expression of iNOS mRNA [4]: blocked this effect; protection against cytomix-induced hyperpermeability ([2]; 10 and 100 μmol/L): statistically significant; cytomix-induced epithelial hyperpermeability ([2]; cytomix 24 or 48 h, graded concentrations, concentration-dependent): ameliorated; Epithelial permeability (FD4 flux) ([2]; monolayers incubated with NAD+ alone, no cytomix): unaffected; mortality [5]: completely prevented mortality; nuclear localization of NF-κB (NF-κB [6]; 1 μM): dramatically decreased; nuclear NF-κB levels (NF-κB [6]; 100 μM): near baseline levels; LPS-induced release of TNF-α (TNF-α): partially blocked; cytomix-induced NF-κB activation (NF-κB [7]; 1 μmol/L, nuclear extracts 4 h): no effect; nuclear levels of NF-κB (NF-κB [7]; NAD+ alone, no cytomix): no effect; NF-κB DNA binding (NF-κB [7]; cytomix, 10 or 100 μmol/L, nuclear extracts 4 h): clearly decreased
